{
  "source": "patent US20200222474A1",
  "about": "“COMPOSITIONS AND METHODS FOR INCREASING PHYTOCHEMICAL BIOAVAILABLITY AND BIOACTIVITY” (North Carolina State University, priority 2017, published 2020)",
  "system": "L. acidophilus NCFM",
  "experiment": "RNA-seq transcriptional analysis of L. acidophilus NCFM growing on plant glycosides",
  "format": "cell-based, Lactobacillus acidophilus",
  "key": {"[1]": {"conditions": "LBA1481 D-ribose-binding protein precursor, COG G"}, "[2]": {"conditions": "LBA1482 Ribose ABC transporter, COG G"}, "[3]": {"conditions": "LBA1483 Ribose ABC transporter ATP binding protein, COG G"}, "[4]": {"conditions": "LBA1484 D-ribose pyranase, COG G"}, "[5]": {"conditions": "LBA1494 Lincomycin-resistance protein, COG GEPR"}, "[6]": {"conditions": "LBA1607 Phosphatidylserine decarboxylase precursor, COG I"}, "[7]": {"conditions": "LBA1632 NAD-dependent aldehyde dehydrogenase, COG C"}, "[8]": {"conditions": "LBA1653 Nicotinamide mononucleotide, COG H"}, "[9]": {"conditions": "LBA1684 Putative PTS system IIA component, COG G"}, "[10]": {"conditions": "LBA1689 Maltose-6′-phosphate Oucosidase, COG G"}, "[11]": {"conditions": "LBA1700 Transcriptional regulator-type, COG K"}, "[12]": {"conditions": "LBA1701 Melibiose operon regulatory protein, COG K"}, "[13]": {"conditions": "LBA1705 PTS system IIBC component, COG G"}, "[14]": {"conditions": "LBA1708 Transcriptional antiterminator, COG K"}, "[15]": {"conditions": "LBA1710 Thermostable pullulanase, COG G"}, "[16]": {"conditions": "LBA1812 Alpha-glucosidase II, COG G"}, "[17]": {"conditions": "LBA1870 Maltose phosphorylase, COG G"}, "[18]": {"conditions": "LBA1872 Oligo-1,6-glucosidase, COG G"}, "[19]": {"conditions": "LBA1955 Transcription regulator family protein, COG K"}, "[20]": {"conditions": "gene LBA0046 (Hypothetical protein)"}, "[21]": {"conditions": "gene LBA0149 (Putative nucleotide-binding protein)"}, "[22]": {"conditions": "gene LBA0263 (Hypothetical protein)"}},
  "data": [
    {"smiles": "N#C[C@H](O[C@@H]1O[C@H](CO[C@@H]2O[C@H](CO)[C@@H](O)[C@H](O)[C@H]2O)[C@@H](O)[C@H](O)[C@H]1O)c1ccccc1", "note": "[Amygdalin]", "values": [
      {"measurement": "Transcripts per million (rpm)", "setting": "LBA1468 Beta-galactosidase small subunit, COG G", "result": 61.3, "unit": "rpm"},
      {"measurement": "Log2 differential normalized TPM ratio compared to glucose", "setting": "[1]", "result": 3},
      {"measurement": "Log2 differential normalized TPM ratio compared to lactose", "setting": "[1]", "result": 2.3},
      {"measurement": "Transcripts per million (rpm)", "setting": "[1]", "result": 33, "unit": "rpm"},
      {"measurement": "Log2 differential normalized TPM ratio compared to glucose", "setting": "[2]", "result": 3.4},
      {"measurement": "Log2 differential normalized TPM ratio compared to lactose", "setting": "[2]", "result": 2.3},
      {"measurement": "Transcripts per million (rpm)", "setting": "[2]", "result": 32.6, "unit": "rpm"},
      {"measurement": "Log2 differential normalized TPM ratio compared to glucose", "setting": "[3]", "result": 3.6},
      {"measurement": "Log2 differential normalized TPM ratio compared to lactose", "setting": "[3]", "result": 2.6},
      {"measurement": "Transcripts per million (rpm)", "setting": "[3]", "result": 30.8, "unit": "rpm"},
      {"measurement": "Log2 differential normalized TPM ratio compared to glucose", "setting": "[4]", "result": 3.6},
      {"measurement": "Log2 differential normalized TPM ratio compared to lactose", "setting": "[4]", "result": 2.9},
      {"measurement": "Transcripts per million (rpm)", "setting": "[4]", "result": 37.3, "unit": "rpm"},
      {"measurement": "Log2 differential normalized TPM ratio compared to glucose", "setting": "LBA1485 Ribokinase, COG G", "result": 3.5},
      {"measurement": "Log2 differential normalized TPM ratio compared to lactose", "setting": "LBA1485 Ribokinase, COG G", "result": 2.8},
      {"measurement": "Transcripts per million (rpm)", "setting": "LBA1485 Ribokinase, COG G", "result": 29.8, "unit": "rpm"},
      {"measurement": "Log2 differential normalized TPM ratio compared to glucose", "setting": "[5]", "result": "−0.7"},
      {"measurement": "Log2 differential normalized TPM ratio compared to lactose", "setting": "[5]", "result": "−0.8"},
      {"measurement": "Transcripts per million (rpm)", "setting": "[5]", "result": 2.6, "unit": "rpm"},
      {"measurement": "Log2 differential normalized TPM ratio compared to glucose", "setting": "[6]", "result": 2.6},
      {"measurement": "Log2 differential normalized TPM ratio compared to lactose", "setting": "[6]", "result": 1.6},
      {"measurement": "Transcripts per million (rpm)", "setting": "[6]", "result": 102.4, "unit": "rpm"},
      {"measurement": "Log2 differential normalized TPM ratio compared to glucose", "setting": "[7]", "result": 4.4},
      {"measurement": "Log2 differential normalized TPM ratio compared to lactose", "setting": "[7]", "result": 2.6},
      {"measurement": "Transcripts per million (rpm)", "setting": "[7]", "result": 1223.3, "unit": "rpm"},
      {"measurement": "Log2 differential normalized TPM ratio compared to glucose", "setting": "[8]", "result": "−0.1"},
      {"measurement": "Log2 differential normalized TPM ratio compared to lactose", "setting": "[8]", "result": "−0.7"},
      {"measurement": "Transcripts per million (rpm)", "setting": "[8]", "result": 180.2, "unit": "rpm"},
      {"measurement": "Log2 differential normalized TPM ratio compared to glucose", "setting": "[9]", "result": 6.6},
      {"measurement": "Log2 differential normalized TPM ratio compared to lactose", "setting": "[9]", "result": 4.7},
      {"measurement": "Transcripts per million (rpm)", "setting": "[9]", "result": 976.1, "unit": "rpm"},
      {"measurement": "Log2 differential normalized TPM ratio compared to glucose", "setting": "[10]", "result": 5.3},
      {"measurement": "Log2 differential normalized TPM ratio compared to lactose", "setting": "[10]", "result": 3.9},
      {"measurement": "Transcripts per million (rpm)", "setting": "[10]", "result": 113.8, "unit": "rpm"},
      {"measurement": "Log2 differential normalized TPM ratio compared to glucose", "setting": "[11]", "result": 2.5},
      {"measurement": "Log2 differential normalized TPM ratio compared to lactose", "setting": "[11]", "result": 2.1},
      {"measurement": "Transcripts per million (rpm)", "setting": "[11]", "result": 96.2, "unit": "rpm"},
      {"measurement": "Log2 differential normalized TPM ratio compared to glucose", "setting": "[12]", "result": 5.3},
      {"measurement": "Log2 differential normalized TPM ratio compared to lactose", "setting": "[12]", "result": 4.6},
      {"measurement": "Transcripts per million (rpm)", "setting": "[12]", "result": 1323.5, "unit": "rpm"},
      {"measurement": "Log2 differential normalized TPM ratio compared to glucose", "setting": "[13]", "result": 2.7},
      {"measurement": "Log2 differential normalized TPM ratio compared to lactose", "setting": "[13]", "result": 1.9},
      {"measurement": "Transcripts per million (rpm)", "setting": "[13]", "result": 18.5, "unit": "rpm"},
      {"measurement": "Log2 differential normalized TPM ratio compared to glucose", "setting": "[14]", "result": 2.8},
      {"measurement": "Log2 differential normalized TPM ratio compared to lactose", "setting": "[14]", "result": 1.4},
      {"measurement": "Transcripts per million (rpm)", "setting": "[14]", "result": 3.3, "unit": "rpm"},
      {"measurement": "Log2 differential normalized TPM ratio compared to glucose", "setting": "[15]", "result": 2.1},
      {"measurement": "Log2 differential normalized TPM ratio compared to lactose", "setting": "[15]", "result": 1.7},
      {"measurement": "Transcripts per million (rpm)", "setting": "[15]", "result": 26.7, "unit": "rpm"},
      {"measurement": "Log2 differential normalized TPM ratio compared to glucose", "setting": "LBA1723 Transposase, COG L", "result": 2},
      {"measurement": "Log2 differential normalized TPM ratio compared to lactose", "setting": "LBA1723 Transposase, COG L", "result": 1.8},
      {"measurement": "Transcripts per million (rpm)", "setting": "LBA1723 Transposase, COG L", "result": 176.9, "unit": "rpm"},
      {"measurement": "Log2 differential normalized TPM ratio compared to glucose", "setting": "[16]", "result": 5.3},
      {"measurement": "Log2 differential normalized TPM ratio compared to lactose", "setting": "[16]", "result": 3.2},
      {"measurement": "Transcripts per million (rpm)", "setting": "[16]", "result": 520.3, "unit": "rpm"},
      {"measurement": "Log2 differential normalized TPM ratio compared to glucose", "setting": "[17]", "result": 2.7},
      {"measurement": "Log2 differential normalized TPM ratio compared to lactose", "setting": "[17]", "result": 3.9},
      {"measurement": "Transcripts per million (rpm)", "setting": "[17]", "result": 539.7, "unit": "rpm"},
      {"measurement": "Log2 differential normalized TPM ratio compared to glucose", "setting": "LBA1871 Neopullulanase, COG G", "result": 4.3},
      {"measurement": "Log2 differential normalized TPM ratio compared to lactose", "setting": "LBA1871 Neopullulanase, COG G", "result": 3.6},
      {"measurement": "Transcripts per million (rpm)", "setting": "LBA1871 Neopullulanase, COG G", "result": 43.6, "unit": "rpm"},
      {"measurement": "Log2 differential normalized TPM ratio compared to glucose", "setting": "[18]", "result": 3.6},
      {"measurement": "Log2 differential normalized TPM ratio compared to lactose", "setting": "[18]", "result": 3.2},
      {"measurement": "Transcripts per million (rpm)", "setting": "[18]", "result": 30, "unit": "rpm"},
      {"measurement": "Log2 differential normalized TPM ratio compared to glucose", "setting": "LBA1873 Acetate kinase, COG C", "result": 4.6},
      {"measurement": "Log2 differential normalized TPM ratio compared to lactose", "setting": "LBA1873 Acetate kinase, COG C", "result": 3.2},
      {"measurement": "Transcripts per million (rpm)", "setting": "LBA1873 Acetate kinase, COG C", "result": 67.3, "unit": "rpm"},
      {"measurement": "Log2 differential normalized TPM ratio compared to glucose", "setting": "LBA1878 Glycerol kinase, COG C", "result": 1.4},
      {"measurement": "Log2 differential normalized TPM ratio compared to lactose", "setting": "LBA1878 Glycerol kinase, COG C", "result": 1.3},
      {"measurement": "Transcripts per million (rpm)", "setting": "LBA1878 Glycerol kinase, COG C", "result": 17.8, "unit": "rpm"},
      {"measurement": "Log2 differential normalized TPM ratio compared to glucose", "setting": "[19]", "result": 3.8},
      {"measurement": "Log2 differential normalized TPM ratio compared to lactose", "setting": "[19]", "result": 4.2},
      {"measurement": "Transcripts per million (rpm)", "setting": "[19]", "result": 5835.9, "unit": "rpm"},
      {"measurement": "number of up-regulated genes", "setting": "RNA-seq, compared to glucose", "result": 116, "unit": "genes"},
      {"measurement": "number of uniquely induced genes", "setting": "RNA-seq, up-regulated genes not shared with the other PGs", "result": 58},
      {"measurement": "Log2 differential normalized TPM ratio compared to glucose", "setting": "[20]", "result": "−3"},
      {"measurement": "Log2 differential normalized TPM ratio compared to lactose", "setting": "[20]", "result": "−3.8"},
      {"measurement": "Transcripts per million (rpm)", "setting": "[20]", "result": 29.9, "unit": "rpm"},
      {"measurement": "Log2 differential normalized TPM ratio compared to glucose", "setting": "[21]", "result": 2},
      {"measurement": "Log2 differential normalized TPM ratio compared to lactose", "setting": "[21]", "result": 1.2},
      {"measurement": "Transcripts per million (rpm)", "setting": "[21]", "result": 1625.4, "unit": "rpm"},
      {"measurement": "Log2 differential normalized TPM ratio compared to glucose", "setting": "[22]", "result": 2.1},
      {"measurement": "Log2 differential normalized TPM ratio compared to lactose", "setting": "[22]", "result": 1.4},
      {"measurement": "Transcripts per million (rpm)", "setting": "[22]", "result": 55.9, "unit": "rpm"}
    ]}
  ]
}
